pKi: −log10 of the molar value.
The compounds below were run against T1, Thermolysin (Bacillus thermoproteolyticus, UniProt P00800) (assay: Competitive inhibition of Bacillus thermoproteolyticus thermolysin using N-[3-(2-furyl)acryloyl]Gly-L-Leu-NH2 as substrate by Dixon plot analysis).
T1 sequence (P00800 whole entry): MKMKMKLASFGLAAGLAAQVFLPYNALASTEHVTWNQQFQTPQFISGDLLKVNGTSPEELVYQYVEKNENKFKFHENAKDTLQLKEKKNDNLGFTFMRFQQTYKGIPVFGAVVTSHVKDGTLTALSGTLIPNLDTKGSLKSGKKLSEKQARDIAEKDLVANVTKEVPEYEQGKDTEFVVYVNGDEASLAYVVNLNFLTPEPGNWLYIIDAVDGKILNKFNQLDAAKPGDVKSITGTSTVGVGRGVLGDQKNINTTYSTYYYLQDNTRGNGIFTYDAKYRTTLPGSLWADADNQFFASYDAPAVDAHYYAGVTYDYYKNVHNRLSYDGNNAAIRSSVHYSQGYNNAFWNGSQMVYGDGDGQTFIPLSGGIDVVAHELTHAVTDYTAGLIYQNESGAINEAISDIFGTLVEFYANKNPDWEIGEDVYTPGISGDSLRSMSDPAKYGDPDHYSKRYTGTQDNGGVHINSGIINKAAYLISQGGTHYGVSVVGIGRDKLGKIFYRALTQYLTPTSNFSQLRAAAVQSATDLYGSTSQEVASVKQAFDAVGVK

Compared with `NC(=O)[C@H](Cc1ccccc1)C[N+](=O)[O-]`, `NC(=O)[C@@H](Cc1ccccc1)C[N+](=O)[O-]` is 1.94 log units lower in pKi: 5.12 for the first, 3.18 for the second. The first binds more tightly here.

First: COC(=O)[C@H](Cc1ccccc1)NC(=O)[C@H](Cc1ccccc1)C[N+](=O)[O-]
Second: COC(=O)[C@H](Cc1ccccc1)NC(=O)[C@@H](Cc1ccccc1)C[N+](=O)[O-]
The pKi of the first is 1.92 log units higher: 6.02 for the first, 4.10 for the second.

First: COC(=O)[C@@H](Cc1ccccc1)NC(=O)[C@H](Cc1ccccc1)C[N+](=O)[O-]
Second: COC(=O)[C@@H](Cc1ccccc1)NC(=O)[C@@H](Cc1ccccc1)C[N+](=O)[O-]
The pKi of the first is 1.78 log units higher: 5.85 for the first, 4.07 for the second.

Compared with `COC(=O)[C@H](Cc1ccccc1)NC(=O)[C@H](CC(C)C)C[N+](=O)[O-]`, `COC(=O)[C@H](Cc1ccccc1)NC(=O)[C@@H](CC(C)C)C[N+](=O)[O-]` is 0.94 log units lower in pKi: 6.08 for the first, 5.14 for the second.

Going from `COC(=O)[C@H](CC(C)C)NC(=O)[C@H](Cc1ccccc1)C[N+](=O)[O-]` to `COC(=O)[C@H](CC(C)C)NC(=O)[C@@H](Cc1ccccc1)C[N+](=O)[O-]`, the pKi falls from 6.43 to 5.62 (0.81 log units). The first binds more tightly here.

First: COC(=O)[C@H](CC(C)C)NC(=O)[C@H](CC(C)C)C[N+](=O)[O-]
Second: COC(=O)[C@H](CC(C)C)NC(=O)[C@@H](CC(C)C)C[N+](=O)[O-]
The pKi of the first is 0.97 log units higher: 7.08 for the first, 6.11 for the second.

In the case of `NC(=O)C(Cc1ccccc1)C[N+](=O)[O-]` (racemic), the pKi was 4.44.

Source: ChEMBL document CHEMBL3217754, “Nitro-based inhibitors against thermolysin” (Medchemcomm, 2011)
